Test results reported in ChEMBL document CHEMBL4507266, “Data for DCP probe BAY-784” (2021).

Columns and labels:
[1] = target: Mitogen-activated protein kinase 14 (Homo sapiens) (UniProt Q16539); details: Compound concentration 1000.0 nM
[2] = system: Epidermal growth factor receptor (Homo sapiens), P00533 [UNDEFINED MUTATION]; details: Compound concentration 1000.0 nM
[3] = target: Mitogen-activated protein kinase kinase kinase 7 (Homo sapiens) (UniProt O43318); details: Compound concentration 1000.0 nM
[4] = target: Serine/threonine-protein kinase OSR1 (Homo sapiens) (UniProt O95747); details: Compound concentration 1000.0 nM
[5] = system: Tyrosine-protein kinase ABL1 (Homo sapiens), P00519 [H396P]; details: Compound concentration 1000.0 nM
[6] = target: Tyrosine-protein kinase Fgr (Homo sapiens) (UniProt P09769); details: Compound concentration 1000.0 nM
[7] = target: Proto-oncogene tyrosine-protein kinase receptor Ret (Homo sapiens) (UniProt P07949); details: Compound concentration 1000.0 nM
Sequence of Proto-oncogene tyrosine-protein kinase receptor Ret (Homo sapiens) (P07949 whole entry): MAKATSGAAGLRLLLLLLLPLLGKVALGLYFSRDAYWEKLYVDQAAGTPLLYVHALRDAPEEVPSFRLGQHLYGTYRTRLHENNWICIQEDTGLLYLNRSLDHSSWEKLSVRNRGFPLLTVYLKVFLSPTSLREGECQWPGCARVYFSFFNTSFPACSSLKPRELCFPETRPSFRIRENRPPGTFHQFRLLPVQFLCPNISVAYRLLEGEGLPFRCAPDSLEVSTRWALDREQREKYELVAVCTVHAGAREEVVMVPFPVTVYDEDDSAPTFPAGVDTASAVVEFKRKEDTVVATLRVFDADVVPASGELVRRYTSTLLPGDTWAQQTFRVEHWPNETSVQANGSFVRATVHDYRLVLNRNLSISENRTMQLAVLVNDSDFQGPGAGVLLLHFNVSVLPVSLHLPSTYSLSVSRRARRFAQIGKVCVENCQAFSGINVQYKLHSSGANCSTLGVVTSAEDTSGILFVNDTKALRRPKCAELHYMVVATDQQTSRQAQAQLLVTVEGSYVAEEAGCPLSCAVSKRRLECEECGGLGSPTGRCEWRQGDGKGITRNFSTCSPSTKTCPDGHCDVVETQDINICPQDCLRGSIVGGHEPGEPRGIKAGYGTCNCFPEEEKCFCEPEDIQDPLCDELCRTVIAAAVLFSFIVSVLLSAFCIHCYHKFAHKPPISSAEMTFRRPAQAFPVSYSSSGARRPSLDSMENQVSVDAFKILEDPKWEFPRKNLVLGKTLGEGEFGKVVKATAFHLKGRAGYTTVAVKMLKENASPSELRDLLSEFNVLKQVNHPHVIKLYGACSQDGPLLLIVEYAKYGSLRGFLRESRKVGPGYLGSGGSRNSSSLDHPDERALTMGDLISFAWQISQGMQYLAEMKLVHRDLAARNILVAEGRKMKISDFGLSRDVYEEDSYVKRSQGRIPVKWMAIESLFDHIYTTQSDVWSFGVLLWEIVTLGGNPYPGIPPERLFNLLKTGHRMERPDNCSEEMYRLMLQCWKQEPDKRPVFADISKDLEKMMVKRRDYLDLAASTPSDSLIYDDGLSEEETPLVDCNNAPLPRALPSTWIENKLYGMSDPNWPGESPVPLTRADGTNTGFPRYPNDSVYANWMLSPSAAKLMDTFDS

[8] = target: Macrophage colony-stimulating factor 1 receptor (Homo sapiens) (UniProt P07333); details: Compound concentration 1000.0 nM
[9] = target: TGF-beta receptor type-2 (Homo sapiens) (UniProt P37173); details: Compound concentration 1000.0 nM
[10] = system: Mast/stem cell growth factor receptor Kit (Homo sapiens), P10721 [D816V]; details: Compound concentration 1000.0 nM
Sequence of Mast/stem cell growth factor receptor Kit (Homo sapiens), P10721 [D816V] (P10721 whole entry D816V): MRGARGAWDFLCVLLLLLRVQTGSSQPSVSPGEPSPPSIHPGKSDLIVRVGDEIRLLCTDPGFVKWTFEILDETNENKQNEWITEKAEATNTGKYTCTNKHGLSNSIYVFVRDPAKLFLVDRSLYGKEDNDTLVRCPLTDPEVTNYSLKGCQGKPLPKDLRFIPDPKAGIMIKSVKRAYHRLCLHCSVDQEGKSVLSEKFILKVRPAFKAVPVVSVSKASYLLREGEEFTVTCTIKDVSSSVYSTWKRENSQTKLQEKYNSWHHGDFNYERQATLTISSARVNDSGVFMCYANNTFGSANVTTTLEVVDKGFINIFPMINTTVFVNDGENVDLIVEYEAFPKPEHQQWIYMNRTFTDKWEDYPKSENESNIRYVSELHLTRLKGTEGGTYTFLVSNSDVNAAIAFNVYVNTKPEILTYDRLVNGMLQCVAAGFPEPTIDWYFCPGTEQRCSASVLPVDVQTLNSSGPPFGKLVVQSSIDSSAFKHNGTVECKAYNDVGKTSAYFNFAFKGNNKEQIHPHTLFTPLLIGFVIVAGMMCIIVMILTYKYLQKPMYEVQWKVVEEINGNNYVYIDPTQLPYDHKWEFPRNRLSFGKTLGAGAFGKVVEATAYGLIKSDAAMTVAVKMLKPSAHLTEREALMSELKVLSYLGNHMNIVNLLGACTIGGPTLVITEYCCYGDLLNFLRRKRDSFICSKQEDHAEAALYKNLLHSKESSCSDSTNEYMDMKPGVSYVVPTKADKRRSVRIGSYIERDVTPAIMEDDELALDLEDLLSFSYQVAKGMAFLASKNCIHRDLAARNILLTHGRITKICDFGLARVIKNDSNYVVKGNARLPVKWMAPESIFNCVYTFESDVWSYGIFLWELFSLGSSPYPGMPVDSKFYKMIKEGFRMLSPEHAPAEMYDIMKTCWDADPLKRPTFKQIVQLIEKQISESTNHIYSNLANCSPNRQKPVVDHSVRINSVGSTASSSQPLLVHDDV

[11] = target: Activin receptor type-1 (Homo sapiens) (UniProt Q04771); details: Compound concentration 1000.0 nM
[12] = target: T1, Muscarinic acetylcholine receptor M5 (Homo sapiens) (UniProt P08912); details: Compound concentration 10.0 uM
T1 sequence (whole entry): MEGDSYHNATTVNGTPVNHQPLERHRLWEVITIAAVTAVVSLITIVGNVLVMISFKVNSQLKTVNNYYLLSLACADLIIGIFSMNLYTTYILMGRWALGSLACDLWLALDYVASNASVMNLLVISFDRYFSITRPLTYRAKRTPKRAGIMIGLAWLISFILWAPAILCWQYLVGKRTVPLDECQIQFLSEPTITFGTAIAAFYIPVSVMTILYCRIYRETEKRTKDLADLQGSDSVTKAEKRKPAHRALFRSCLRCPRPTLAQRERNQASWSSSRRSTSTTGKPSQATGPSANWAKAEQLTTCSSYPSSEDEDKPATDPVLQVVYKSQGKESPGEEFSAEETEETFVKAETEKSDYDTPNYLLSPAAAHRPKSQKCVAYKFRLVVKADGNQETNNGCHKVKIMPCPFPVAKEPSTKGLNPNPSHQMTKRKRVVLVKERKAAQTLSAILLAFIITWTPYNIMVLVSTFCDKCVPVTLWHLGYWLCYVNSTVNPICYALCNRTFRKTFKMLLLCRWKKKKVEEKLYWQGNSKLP

[13] = target: Tyrosine-protein kinase TXK (Homo sapiens) (UniProt P42681); details: Compound concentration 1000.0 nM
[14] = target: Non-receptor tyrosine-protein kinase TYK2 (Homo sapiens) (UniProt P29597); details: Compound concentration 1000.0 nM
[15] = target: Serine/threonine-protein kinase ULK3 (Homo sapiens) (UniProt Q6PHR2); details: Compound concentration 1000.0 nM
[16] = target: 3-phosphoinositide-dependent protein kinase 1 (Homo sapiens) (UniProt O15530); details: Compound concentration 1000.0 nM
[17] = target: Histamine H1 receptor (Homo sapiens) (UniProt P35367); details: Compound concentration 10.0 uM
Sequence of Histamine H1 receptor (Homo sapiens) (P35367 whole entry): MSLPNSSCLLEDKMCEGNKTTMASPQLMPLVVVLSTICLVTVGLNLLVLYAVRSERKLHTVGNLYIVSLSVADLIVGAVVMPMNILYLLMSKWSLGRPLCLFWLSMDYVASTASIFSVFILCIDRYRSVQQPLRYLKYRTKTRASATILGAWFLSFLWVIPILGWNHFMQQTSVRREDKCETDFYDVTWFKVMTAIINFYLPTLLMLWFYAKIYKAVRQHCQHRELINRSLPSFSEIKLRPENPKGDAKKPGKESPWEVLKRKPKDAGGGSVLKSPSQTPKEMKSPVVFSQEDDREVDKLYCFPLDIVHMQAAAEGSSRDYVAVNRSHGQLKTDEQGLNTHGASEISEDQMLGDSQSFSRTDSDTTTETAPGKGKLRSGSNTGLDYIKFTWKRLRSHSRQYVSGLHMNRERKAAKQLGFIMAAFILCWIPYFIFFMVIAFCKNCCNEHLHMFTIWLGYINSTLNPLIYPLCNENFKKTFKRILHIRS

[18] = target: Ephrin type-A receptor 6 (Homo sapiens) (UniProt Q9UF33); details: Compound concentration 1000.0 nM
[19] = target: Mitogen-activated protein kinase kinase kinase kinase 3 (Homo sapiens) (UniProt Q8IVH8); details: Compound concentration 1000.0 nM
[20] = target: Dual specificity tyrosine-phosphorylation-regulated kinase 2 (Homo sapiens) (UniProt Q92630); details: Compound concentration 1000.0 nM
[21] = target: Serine/threonine-protein kinase SBK1 (Homo sapiens) (UniProt Q52WX2); details: Compound concentration 1000.0 nM
[22] = target: Calcium/calmodulin-dependent protein kinase kinase 2 (Homo sapiens) (UniProt Q96RR4); details: Compound concentration 1000.0 nM
[23] = system: Fibroblast growth factor receptor 3 (Homo sapiens), P22607 [G697C]; details: Compound concentration 1000.0 nM
[24] = target: Phosphatidylinositol 5-phosphate 4-kinase type-2 gamma (Homo sapiens) (UniProt Q8TBX8); details: Compound concentration 1000.0 nM
[25] = target: Serine/threonine-protein kinase pim-1 (Homo sapiens) (UniProt P11309); details: Compound concentration 1000.0 nM
[26] = target: Mitogen-activated protein kinase kinase kinase 13 (Homo sapiens) (UniProt O43283); details: Compound concentration 1000.0 nM
Sequence of Mitogen-activated protein kinase kinase kinase 13 (Homo sapiens) (O43283 whole entry): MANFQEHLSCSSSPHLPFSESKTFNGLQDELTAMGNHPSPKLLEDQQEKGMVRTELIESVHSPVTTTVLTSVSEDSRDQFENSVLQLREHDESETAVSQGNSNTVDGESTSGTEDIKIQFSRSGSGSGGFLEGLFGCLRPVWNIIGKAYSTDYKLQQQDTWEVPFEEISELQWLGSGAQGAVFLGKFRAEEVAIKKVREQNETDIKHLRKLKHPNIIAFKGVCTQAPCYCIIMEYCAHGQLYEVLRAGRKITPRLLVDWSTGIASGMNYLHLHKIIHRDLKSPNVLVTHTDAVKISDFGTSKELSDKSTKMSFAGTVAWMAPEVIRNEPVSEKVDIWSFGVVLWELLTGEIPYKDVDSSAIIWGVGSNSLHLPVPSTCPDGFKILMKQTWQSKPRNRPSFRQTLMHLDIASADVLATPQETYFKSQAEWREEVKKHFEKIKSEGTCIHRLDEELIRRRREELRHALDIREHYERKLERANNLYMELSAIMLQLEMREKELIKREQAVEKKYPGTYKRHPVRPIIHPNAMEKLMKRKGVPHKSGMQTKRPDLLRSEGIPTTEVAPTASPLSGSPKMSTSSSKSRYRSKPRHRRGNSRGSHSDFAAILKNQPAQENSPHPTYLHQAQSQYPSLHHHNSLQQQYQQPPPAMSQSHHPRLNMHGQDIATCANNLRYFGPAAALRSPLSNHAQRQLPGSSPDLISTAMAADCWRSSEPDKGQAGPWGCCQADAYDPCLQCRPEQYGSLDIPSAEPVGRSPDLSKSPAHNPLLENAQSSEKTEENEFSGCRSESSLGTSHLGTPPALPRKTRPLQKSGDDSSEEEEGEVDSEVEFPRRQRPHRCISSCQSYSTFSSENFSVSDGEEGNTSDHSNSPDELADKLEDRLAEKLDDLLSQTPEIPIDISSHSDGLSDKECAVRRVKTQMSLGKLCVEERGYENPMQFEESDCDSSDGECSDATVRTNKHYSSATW

[27] = target: Misshapen-like kinase 1 (Homo sapiens) (UniProt Q8N4C8); details: Compound concentration 1000.0 nM
Sequence of Misshapen-like kinase 1 (Homo sapiens) (Q8N4C8 whole entry, looked up): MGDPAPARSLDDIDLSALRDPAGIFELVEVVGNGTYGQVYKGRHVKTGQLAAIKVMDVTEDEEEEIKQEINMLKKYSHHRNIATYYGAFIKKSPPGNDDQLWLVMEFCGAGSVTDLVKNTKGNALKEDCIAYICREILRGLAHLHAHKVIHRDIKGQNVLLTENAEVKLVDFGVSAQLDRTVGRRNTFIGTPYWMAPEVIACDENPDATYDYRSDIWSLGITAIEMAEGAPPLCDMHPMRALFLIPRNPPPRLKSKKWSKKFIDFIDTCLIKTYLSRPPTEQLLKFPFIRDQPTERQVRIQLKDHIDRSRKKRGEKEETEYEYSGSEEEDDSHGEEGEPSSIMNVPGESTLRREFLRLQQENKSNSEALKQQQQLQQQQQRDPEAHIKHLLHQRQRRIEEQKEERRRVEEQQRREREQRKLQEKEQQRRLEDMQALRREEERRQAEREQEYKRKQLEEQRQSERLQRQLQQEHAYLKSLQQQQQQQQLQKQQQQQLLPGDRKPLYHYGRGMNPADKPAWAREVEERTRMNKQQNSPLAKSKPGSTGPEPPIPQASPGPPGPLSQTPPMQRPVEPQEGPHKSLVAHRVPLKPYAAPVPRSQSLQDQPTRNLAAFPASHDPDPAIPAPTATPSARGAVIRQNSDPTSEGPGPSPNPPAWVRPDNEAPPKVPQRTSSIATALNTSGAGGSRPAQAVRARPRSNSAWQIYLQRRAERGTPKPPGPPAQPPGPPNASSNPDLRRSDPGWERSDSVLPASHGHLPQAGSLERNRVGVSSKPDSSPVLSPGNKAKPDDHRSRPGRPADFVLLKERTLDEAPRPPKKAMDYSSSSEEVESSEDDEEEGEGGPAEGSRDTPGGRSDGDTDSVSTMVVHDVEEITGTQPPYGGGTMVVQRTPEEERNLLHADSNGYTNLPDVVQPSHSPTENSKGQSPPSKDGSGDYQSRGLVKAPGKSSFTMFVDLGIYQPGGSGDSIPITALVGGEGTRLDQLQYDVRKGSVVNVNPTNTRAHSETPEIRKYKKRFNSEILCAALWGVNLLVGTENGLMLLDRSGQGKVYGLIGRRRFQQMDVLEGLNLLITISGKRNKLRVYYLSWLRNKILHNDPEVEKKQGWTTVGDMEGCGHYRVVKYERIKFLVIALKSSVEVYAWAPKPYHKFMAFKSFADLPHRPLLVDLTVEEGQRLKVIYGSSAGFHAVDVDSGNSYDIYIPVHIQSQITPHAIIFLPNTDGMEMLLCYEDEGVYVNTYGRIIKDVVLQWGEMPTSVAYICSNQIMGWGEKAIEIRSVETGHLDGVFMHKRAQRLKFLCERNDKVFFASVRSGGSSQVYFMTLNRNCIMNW

[28] = target: Histamine H2 receptor (Homo sapiens) (UniProt P25021); details: Compound concentration 10.0 uM
[29] = system: Tyrosine-protein kinase ABL1 (Homo sapiens), P00519 [F317L]; details: Compound concentration 1000.0 nM
[30] = target: Leucine-rich repeat serine/threonine-protein kinase 2 (Homo sapiens) (UniProt Q5S007); details: Compound concentration 1000.0 nM
[31] = target: Mitogen-activated protein kinase 6 (Homo sapiens) (UniProt Q16659); details: Compound concentration 1000.0 nM
[32] = target: D(1B) dopamine receptor (Homo sapiens) (UniProt P21918); details: Compound concentration 10.0 uM
[33] = target: Myosin light chain kinase 2, skeletal/cardiac muscle (Homo sapiens) (UniProt Q9H1R3); details: Compound concentration 1000.0 nM
[34] = target: Aurora kinase B (Homo sapiens) (UniProt Q96GD4); details: Compound concentration 1000.0 nM
[35] = target: Mu-type opioid receptor (Homo sapiens) (UniProt P35372); details: Compound concentration 10.0 uM
[36] = target: Tyrosine-protein kinase receptor UFO (Homo sapiens) (UniProt P30530); details: Compound concentration 1000.0 nM
[37] = target: Tyrosine-protein kinase HCK (Homo sapiens) (UniProt P08631); details: Compound concentration 1000.0 nM
[38] = target: High affinity nerve growth factor receptor (Homo sapiens) (UniProt P04629); details: Compound concentration 1000.0 nM

Row | SMILES | residual activity [1] | residual activity [2] | residual activity [3] | residual activity [4] | residual activity [5] | residual activity [6] | residual activity [7] | residual activity [8] | residual activity [9] | residual activity [10] | residual activity [11] | inhibition [12] | residual activity [13] | residual activity [14] | residual activity [15] | residual activity [16] | inhibition [17] | residual activity [18] | residual activity [19] | residual activity [20] | other results
1 | O=C(NCc1ncc(C(F)(F)F)cc1Cl)c1ccc2c(c1)C1(CCS(=O)(=O)CC1)[C@H](C1CC1)N2S(=O)(=O)c1ccc(F)cc1 [BAY-784] | 100% | 100% | 80% | 87% | 100% | 100% | 98% | 100% | 100% | 100% | 100% | -6.43% | 100% | 92% | 85% | 91% | 24.6% | 100% | 100% | 95% | residual activity [21]: 97%; residual activity [22]: 100%; residual activity [23]: 100%; residual activity [24]: 100%; residual activity [25]: 100%; residual activity [26]: 0%; residual activity [27]: 90%; inhibition [28]: 14.6%; residual activity [29]: 74%; residual activity [30]: 82%; residual activity [31]: 87%; inhibition [32]: 19.1%; residual activity [33]: 100%; residual activity [34]: 66%; inhibition [35]: 29.1%; residual activity [36]: 100%; residual activity [37]: 69%; residual activity [38]: 80%
2 | O=C(NCc1ncc(C(F)(F)F)cc1Cl)c1ccc2c(c1)C1(CCS(=O)(=O)CC1)[C@@H](C1CC1)N2S(=O)(=O)c1ccc(F)cc1 [BAY-786] | 100% | 79% | 63% | 71% | 100% | 93% | 100% | 87% | 71% | 89% | 97% | -1.92% | 83% | 46% | 69% | 92% | 8.01% | 100% | 100% | 90% | residual activity [21]: 92%; residual activity [22]: 83%; residual activity [23]: 80%; residual activity [24]: 100%; residual activity [25]: 74%; residual activity [26]: 0%; residual activity [27]: 85%; inhibition [28]: 16.5%; residual activity [29]: 68%; residual activity [30]: 98%; residual activity [31]: 86%; inhibition [32]: -0.49%; residual activity [33]: 83%; residual activity [34]: 66%; inhibition [35]: 13.1%; residual activity [36]: 100%; residual activity [37]: 86%; residual activity [38]: 75%
